In one assay the test system is HepG2. Put plainly: Cytotoxicity against human HepG2 cells by MTT assay. It is filed as functional, cell-based.
Assay [1] concerns Shigella dysenteriae. Put plainly: Antibacterial activity against Shigella dysenteriae at 25 ug/ml measured after 20 to 45 mins by broth microdilution method. It is filed as functional, organism-based. The settings on record: dose 25.0 µg/ml, time 20-45 min.
The subject of the next assay is SK-OV-3. Put plainly: Cytotoxicity against human SK-OV-3 cells by MTT assay. It is filed as functional, cell-based.
The subject of assay [2] is A2780. Put plainly: Cytotoxicity against human A2780 cells by MTT assay. It is filed as functional, cell-based.
For another assay, the system named is Vibrio parahaemolyticus. Put plainly: Antibacterial activity against Vibrio parahaemolyticus at 25 ug/ml measured after 20 to 45 mins by broth microdilution method. The settings on record: dose 25.0 µg/ml, time 20-45 min. It is filed as functional, organism-based.
In another assay the test system is HeLa. Put plainly: Cytotoxicity against human HeLa cells by MTT assay. It is filed as functional, cell-based.
In another assay the test system is Escherichia coli. The assay can be described thus: Antibacterial activity against Escherichia coli at 25 ug/ml measured after 20 to 45 mins by broth microdilution method. It is filed as functional, organism-based. The conditions noted are these: dose 25.0 µg/ml, time 20-45 min.
The next assay has as its system Salmonella typhi. Put plainly: Antibacterial activity against Salmonella typhi at 25 ug/ml measured after 20 to 45 mins by broth microdilution method. It is filed as functional, organism-based. The settings on record: Salmonella enterica subsp. enterica serovar Typhi; dose 25.0 µg/ml, time 20-45 min.
A further assay relates to Staphylococcus aureus. The assay can be described thus: Antibacterial activity against Staphylococcus aureus at 25 ug/ml measured after 20 to 45 mins by broth microdilution method. It is filed as functional, organism-based. The settings on record: dose 25.0 µg/ml, time 20-45 min.
The test system of another assay is Enterococcus faecalis. The assay can be described thus: Antibacterial activity against Enterococcus faecalis measured after 20 to 45 mins by broth microdilution method. The conditions noted are these: time 20-45 min. It is filed as functional.
A further assay deals with Bacillus subtilis. Put plainly: Antibacterial activity against Bacillus subtilis measured after 20 to 45 mins by broth microdilution method. It is filed as functional. The conditions noted are these: time 20-45 min.
Assay [3] concerns A2780. The assay can be described thus: Induction of apoptosis in human A2780 cells assessed as chromatin condensation at 1 to 9 uM measured after 48 hrs by Hoechst 33258 staining based assay. It is filed as functional, cell-based. The settings on record: dose 1-9 µM.
In assay [4] the test system is A2780. Put plainly: Induction of apoptosis in human A2780 cells assessed as necrotic cells at 3 uM measured after 48 hrs by Annexin V-FITC/PI staining based FACS analysis (reference value: 1.34 to 3.3%). It is filed as functional.
The test system of assay [5] is A2780. Put plainly: Induction of apoptosis in human A2780 cells assessed as early apoptotic cells at 3 uM measured after 48 hrs by Annexin V-FITC/PI staining based FACS analysis (reference value: 1.68 to 1.9%). It is filed as functional.
Assay [6] concerns A2780. The assay can be described thus: Induction of apoptosis in human A2780 cells assessed as viable cells at 3 uM measured after 48 hrs by Annexin V-FITC/PI staining based FACS analysis (reference value: 92.6 to 92.8%). The conditions noted are these: read-out: Activity. It is filed as functional.
The subject of assay [7] is A2780. Put plainly: Induction of apoptosis in human A2780 cells assessed as necrotic cells at 1 uM measured after 48 hrs by Annexin V-FITC/PI staining based FACS analysis (reference value: 1.34 to 3.3%). It is filed as functional.
The test system of assay [8] is A2780. The assay can be described thus: Induction of apoptosis in human A2780 cells assessed as viable cells at 9 uM measured after 48 hrs by Annexin V-FITC/PI staining based FACS analysis (reference value: 92.6 to 92.8%). It is filed as functional. The settings on record: read-out: Activity.
In assay [9] the test system is A2780. Put plainly: Induction of apoptosis in human A2780 cells assessed as viable cells at 1 uM measured after 48 hrs by Annexin V-FITC/PI staining based FACS analysis (reference value: 92.6 to 92.8%). It is filed as functional. The conditions noted are these: read-out: Activity.
Assay [10] deals with A2780. The assay can be described thus: Induction of apoptosis in human A2780 cells assessed as chromatin fragmentation at 1 to 9 uM measured after 48 hrs by Hoechst 33258 staining based assay. It is filed as functional, cell-based. The conditions noted are these: dose 1-9 µM.
In assay [11] the test system is A2780. Put plainly: Induction of apoptosis in human A2780 cells assessed as increase in early apoptotic cells measured after 48 hrs by Annexin V-FITC/PI staining based FACS analysis. The conditions noted are these: dose 1-9 µM. It is filed as functional, cell-based.
In assay [12] the test system is A2780. Put plainly: Induction of apoptosis in human A2780 cells assessed as early apoptotic cells at 9 uM measured after 48 hrs by Annexin V-FITC/PI staining based FACS analysis (reference value: 1.68 to 1.9%). It is filed as functional.
Assay [13] deals with A2780. Put plainly: Induction of apoptosis in human A2780 cells assessed as late apoptotic cells at 9 uM measured after 48 hrs by Annexin V-FITC/PI staining based FACS analysis (reference value: 2.32 to 2.4%). It is filed as functional.
Assay [14] concerns A2780. The assay can be described thus: Induction of apoptosis in human A2780 cells assessed as early apoptotic cells at 1 uM measured after 48 hrs by Annexin V-FITC/PI staining based FACS analysis (reference value: 1.68 to 1.9%). It is filed as functional.
The subject of assay [15] is Shigella dysenteriae. The assay can be described thus: Antibacterial activity against Shigella dysenteriae measured after 20 to 45 mins by broth microdilution method. The conditions noted are these: time 20-45 min. It is filed as functional.
Assay [16] deals with A2780. The assay can be described thus: Induction of apoptosis in human A2780 cells assessed as necrotic cells at 9 uM measured after 48 hrs by Annexin V-FITC/PI staining based FACS analysis (reference value: 1.34 to 3.3%). It is filed as functional.
The test system of assay [17] is A2780. Put plainly: Induction of apoptosis in human A2780 cells assessed as late apoptotic cells at 1 uM measured after 48 hrs by Annexin V-FITC/PI staining based FACS analysis (reference value: 2.32 to 2.4%). It is filed as functional.
Assay [18] relates to A2780. Put plainly: Induction of apoptosis in human A2780 cells assessed as late apoptotic cells at 3 uM measured after 48 hrs by Annexin V-FITC/PI staining based FACS analysis (reference value: 2.32 to 2.4%). It is filed as functional.
Assay [19] has as its system A2780. Put plainly: Induction of apoptosis in human A2780 cells assessed as increase in late apoptotic cells measured after 48 hrs by Annexin V-FITC/PI staining based FACS analysis. The settings on record: dose 1-9 µM. It is filed as functional, cell-based.

Structures are written as SMILES. Converted amounts (≈) assume the structure as drawn. The source made the active and inactive calls. The rule behind the calls is not given here.

Regarding `CC1=C[C@@H]2/C=C(\C)CC[C@@H](O)[C@@H](O)/C=C/C(=O)[C@]23C(=O)N[C@@H](CC(C)C)[C@@H]3[C@@H]1C`, the IC50 in the assay on HepG2, with SK-OV-3, in the assay with A2780 [2] and with HeLa was > 20 µM in each case. For the same compound, the outcome with Shigella dysenteriae [1], in the assay with Vibrio parahaemolyticus, with Escherichia coli, in the assay with Salmonella typhi and in the assay with Staphylococcus aureus was inactive. For the same compound, the MIC against Enterococcus faecalis and against Bacillus subtilis was 6.3 µg/mL (≈ 15.7 µM) each time.

For `CC1=C[C@@H]2/C=C(\C)CC[C@@H](O)C(=O)C[C@@H](S[C@H]3CCC[C@H](C)OC(=O)Cc4cc(O)cc(O)c4C(=O)C3)C(=O)[C@]23C(=O)N[C@@H](CC(C)C)[C@@H]3[C@@H]1C`, the result in the assay with A2780 [3] and in the assay on A2780 [10] was Active. For the same compound, the Activity is 2.16% in the assay with A2780 [4]; 5.4% in the assay on A2780 [5]; 4.07% in the assay with A2780 [7]; “Dose-Dependent Effect” in the assay with A2780 [11]; 53.2% with A2780 [12]; 19.1% with A2780 [13]. For the same compound, the Activity is 1.4% in the assay with A2780 [14]; 1.87% with A2780 [16]; 3.56% in the assay on A2780 [17]; 5.46% with A2780 [18]; “Dose-Dependent Effect” in the assay with A2780 [19]. For the same compound, the IC50 with HepG2 amounted to 11 µM; in the assay with SK-OV-3 it was 20 µM; in the assay on A2780 [2], 8.3 µM; in the assay on HeLa it was 23 µM. For the same compound, the viability at 3 µM in the assay with A2780 [6] worked out at 87%. For the same compound, in the assay with A2780 [8], the viability at 9 µM amounted to 26%. Moreover, the viability at 1 µM with A2780 [9] stood at 91%. The outcome with Vibrio parahaemolyticus, in the assay on Escherichia coli, in the assay on Salmonella typhi and in the assay with Staphylococcus aureus was inactive. The MIC against Shigella dysenteriae [15] stood at 13 µg/mL (≈ 18 µM); against Enterococcus faecalis it was 3.1 µg/mL (≈ 4.28 µM); in the assay on Bacillus subtilis it was 6.3 µg/mL (≈ 8.7 µM).

These data come from ChEMBL document CHEMBL5584362, “Sucurchalasins A and B, Sulfur-Containing Heterodimers of a Cytochalasan and a Macrolide from the Endophytic Fungus Aspergillus spelaeus GDGJ-286” (J Nat Prod, 2024).
